Earlier results in patent US20140178456A1, “METHODS AND COMPOSITIONS FOR TREATING TYPE 2 DIABETES AND RELATED CONDITIONS” (priority 2012, published 2014).
Structures can show the parent of a compound that is named as a salt.

| SMILES | peak plasma concentration of pioglitazone and its active metabolites (oral administration of 30 mg pioglitazone) | peak plasma concentration (oral administration of 8 mg rosiglitazone maleate) |
| --- | --- | --- |
| CCc1ccc(CCOc2ccc(CC3SC(=O)NC3=O)cc2)nc1 (centres unmarked) [pioglitazone] | about 146 μg per liter |  |
| CN(CCOc1ccc(CC2SC(=O)NC2=O)cc1)c1ccccn1 (centres unmarked) [rosiglitazone maleate] |  | about 46114 per liter |
